Assay results taken from US10450270B2, “Glyoxamide substituted pyrrolamide derivatives and the use thereof as medicaments for the treatment of hepatitis B” (Janssen Sciences Ireland UC, priority 2013, dated 2019).

Tests used:
HBV [1] = experiment: Anti-HBV activity, HepG2.2.15 stable transfected cell line, HBV DNA from secreted virions by realtime PCR; type: cell-based; details: Hepatitis B virus
HBV [2] = experiment: Anti-HBV activity, HepG2.117 inducible HBV producing cell line (Tet-off), intracellular HBV DNA by realtime PCR; type: cell-based; details: Hepatitis B virus
[3] = Cytotoxicity in HepG2 cells, Resazurin viability assay; details: human, HepG2 cells
[4] = HepG2.2.15, 144 h, read-out: HepG 2.2.15 EC50 (μM)
[5] = HepG2.117, 72 h, read-out: HepG2 117 EC50 (μM)
[6] = 144 h, HepG2.2.15 cells, 6 days of treatment, HBV DNA from secreted virions, read-out: HepG 2.2.15 EC50
[7] = 72 h, HepG2.117 cells, 3 days of treatment, intracellular HBV DNA, read-out: HepG2 117 EC50

| SMILES | EC50 (HBV [1]; [4]) [µM] | melting point [°C] | EC50 (HBV [2]; [5]) [µM] | CC50 at 4 days [3] [µM] | EC50 (HBV [1]; [6]) [µM] | EC50 (HBV [2]; [7]) [µM] |
| --- | --- | --- | --- | --- | --- | --- |
| Cc1cc(NC(=O)c2cc(C(=O)C(=O)N[C@H]3CCOC3)cn2C)ccc1F [Compound 6, (S)—N-(4-fluoro-3-methylphenyl)-1-methyl-4-(2-oxo-2-(tetrahydrofuran-3-ylamino)acetyl)-1H-pyrrole-2-carboxamide] | 0.047 | 155.7 | 0.19 | > 25 |  |  |
| COC(=O)C(C)(C)NC(=O)C(=O)c1cc(C(=O)Nc2ccc(F)c(C)c2)n(C)c1 [Compound 7, methyl 2-(2-(5-(4-fluoro-3-methylphenylcarbamoyl)-1-methyl-1H-pyrrol-3-yl)-2-oxoacetamido)-2-methylpropanoate] | 0.21 | 161 | 0.058 | > 25 |  |  |
| Cc1cc(NC(=O)c2cc(C(=O)C(=O)NC3(C)COC3)cn2C)ccc1F [Compound 4, N-(4-fluoro-3-methylphenyl)-1-methyl-4-(2-(3-methyloxetan-3-ylamino)-2-oxoacetyl)-1H-pyrrole-2-carboxamide] | 0.013 | 145.1 | 0.015 | > 25 |  |  |
| Cn1cc(C(=O)C(=O)NC2(C)COC2)cc1C(=O)Nc1ccc(F)c(F)c1 [Compound 11, N-(3,4-difluorophenyl)-1-methyl-4-(2-(3-methyloxetan-3-ylamino)-2-oxoacetyl)-1H-pyrrole-2-carboxamide] |  | 180.7 |  | > 25 | 0.05 | 0.096 |
| Cn1cc(C(=O)C(=O)NC(C)(C)C)cc1C(=O)Nc1ccc(F)c(F)c1 [Compound 10, 4-(2-(tert-butylamino)-2-oxoacetyl)-N-(3,4-difluorophenyl)-1-methyl-1H-pyrrole-2-carboxamide] |  | 170.7 |  | > 25 | 0.072 | 0.042 |
| CC[C@@H](C)NC(=O)C(=O)c1cc(C(=O)Nc2ccc(F)c(C)c2)n(C)c1 [Compound 1, (R)-4-(2-(sec-butylamino)-2-oxoacetyl)-N-(4-fluoro-3-methylphenyl)-1-methyl-1H-pyrrole-2-carboxamide] |  | 136.5 |  | > 25 | 0.014 | 0.1 |
| Cc1cc(NC(=O)c2cc(C(=O)C(=O)N[C@H](C)C(F)(F)F)cn2C)ccc1F [Compound 5, (R)—N-(4-fluoro-3-methylphenyl)-1-methyl-4-(2-oxo-2-(1,1,1-trifluoropropan-2-ylamino)acetyl)-1H-pyrrole-2-carboxamide] |  | 156.9 |  | > 25 | 0.056 | 0.099 |
| Cc1c(C(=O)C(=O)N[C@H](C)C(F)(F)F)cc(C(=O)Nc2ccc(F)c(C#N)c2)n1C [Compound 28, N-(3-cyano-4-fluoro-phenyl)-1,5-dimethyl-4-[2-oxo-2-[[(1R)-2,2,2-trifluoro-1-methyl-ethyl]amino]acetyl]pyrrole-2-carboxamide] |  |  |  | > 25 | < 0.004 | 0.019 |
| Cn1cc(C(=O)C(=O)NC(C)(C)C)cc1C(=O)Nc1ccc(F)c(C#N)c1 [Compound 15, 4-(2-(tert-butylamino)-2-oxoacetyl)-N-(3-cyano-4-fluorophenyl)-1-methyl-1H-pyrrole-2-carboxamide] |  |  |  | > 25 | 0.027 | 0.043 |
